For assay [1], the system named is osteocalcin. As to the kind of experiment: Osteocalcin mRNA levels (qPCR) in pre-osteoblastic cell line MC3T3-E1 subclone 4. The class given is cell-based. Particulars: 21 days of differentiation, without ascorbic acid; MK-7 3 μM, VitD 1 nM, VitA 100 nM (FIG. 1B). From the text: (§1) The pre-osteoblastic cell line MC3T3-E1 subclone 4 (CRL-2593) was purchased from ATCC (Manassas; Virginia, USA). Cells were maintained in growth medium (GM) composed of ascorbic acid-free aMEM (ThermoFisher Scientific), supplemented with 10% fetal calf serum (FCS, ThermoFisher Scientific) and 1% penicillin/streptomycin. All culture media were refreshed every 2-3 days. Cells were passaged with trypsin/EDTA solution at less than 80% confluence. To induce differentiation into osteoblasts, cells were seeded at 5×10^4 cells/cm^2 and grown to confluency in GM for 24 h. Then, the medium was switched to differentiation medium (DM) composed of GM supplemented with 10 mM β-glycerophosphate and treatment solutions of interest. Ascorbic acid 50 μg/ml was also added to the DM depending on the experiment.
MC3T3-E1 subclone 4 cells were differentiated for 21 days (in DM without ascorbic acid except for the positive control) or 28 days (in DM containing ascorbic acid). Cells were then collected for gene expression analysis. […] RNA concentrations were measured using the DropSense96 (TRINEAN, Gentbrugge, Belgium).
CDNAs were synthetized using High-Capacity cDNA Reverse Transcription Kit (AppliedBiosystems; Waltham, Massachusetts, USA) according to the manufacturer's instructions. […] The relative gene expression was evaluated via the 2^-ΔCt method.
(Real-time PCR tracks product formation cycle by cycle.)

For assay [2], the system named is pre-osteoblastic cell line MC3T3-E1 subclone 4. As to the kind of experiment: Osteoblast alkaline phosphatase (ALP) activity. The format is cell-based. Particulars: 7 days of differentiation, without ascorbic acid; MK-7 3 μM, VitD 1 nM, VitA 100 nM (FIG. 1A).
Description: as §1
MC3T3-E1 subclone 4 cells were differentiated for 7 days without ascorbic acid, except for the positive control, and with the following treatment solutions: a mix composed of 3μM of vit.K2 (menaquinone-7), 100 nM of vit.A (all-trans-retinoic acid) and 1 nM of vit.D (1a,25-Dihydroxyvitamin D3); a mix called “SCFA20” composed of 15 μM of sodium acetate, 4 μM of sodium propionate and 1 μM of sodium butyrate; a mix called “SCFA50” composed of 37.5 μM of sodium acetate, 10 μM of sodium propionate and 2.5 μM of sodium butyrate; a mix called “SCFA60” composed of 45 μM of sodium acetate, 12 μM of sodium propionate and 3 μM of sodium butyrate. The vitamin mix was also combined to the 3 different combinations of short-chain fatty acids (SCFA).
After 7 days of differentiation, cells were then collected for alkaline phosphatase (ALP) activity measurement as described previously with minor modifications. […] Enzymatic reaction was monitored at 405 nm after 4-Nitrophenyl phosphate disodium salt hexahydrate addition. Michaelis-Menten kinetics were evaluated at 30° C. for 30 min. […] The activity value was normalized by protein content measured via the Pierce BCA Protein Assay Kit (ThermoFisher Scientific) according to the manufacturer's instructions.

Take `CC1=C(/C=C/C(C)=C/C=C/C(C)=C/C(=O)O)C(C)(C)CCC1` [vitamin A, all-trans-retinoic acid]: in assay [1], the “Osteocalcin mRNA levels” value is recorded as “no significant effect”. For the same compound, the “ALP activity (marker of osteoblast differentiation)” value in assay [2] is on record as “significant effect”.

As for `C=C1/C(=C\C=C2/CCC[C@]3(C)[C@@H]([C@H](C)CCCC(C)(C)O)CC[C@@H]23)C[C@@H](O)C[C@@H]1O` [vitamin D, 1α,25-Dihydroxyvitamin D3], the “Osteocalcin mRNA levels” value in assay [1] is on record as “no significant effect”. Moreover, the “ALP activity (marker of osteoblast differentiation)” value in assay [2] was “significant effect”.

Regarding `CC(C)=CCC/C(C)=C/CC/C(C)=C/CC/C(C)=C/CC/C(C)=C/CC/C(C)=C/CC/C(C)=C/CC1=C(C)C(=O)c2ccccc2C1=O` [vitamin K2, menaquinone-7], the “ALP activity (marker of osteoblast differentiation)” value in assay [2] is reported as “no significant effect”.

The record behind these values is patent US20260315410A1, “COMBINATION FOR ENHANCING BONE GROWTH AND/OR BONE STRENGTH” (SOCIÉTÉ DES PRODUITS NESTLÉ S.A., priority 2023, published 2026).
